Values after ≈ are worked out from the molar mass of the structure shown.
What was measured:
spores = assay type: cell-based
RSVF1/pDG148::gp41 = assay: microbe, parasite or virus in culture; assay type: cell-based, B. cereus
RSVF1 = assay: microbe, parasite or virus in culture; assay type: cell-based, B. cereus; details: Bacillus cereus, read-out: MIC for fosfomycin
RSVF1/pDG148 = assay: microbe, parasite or virus in culture; assay type: cell-based, B. cereus; details: Bacillus cereus, read-out: MIC for fosfomycin

C[C@@H](N)C(=O)O [D-alanine]
germination frequency (spores): < 10%

C[C@@H]1O[C@@H]1P(=O)(O)O [fosfomycin]
increase in resistance to the antibiotic fosfomycin (RSVF1/pDG148::gp41): 4 log | MIC (RSVF1/pDG148::gp41; Bacillus cereus, read-out: MIC for fosfomycin): 500 µg/mL (≈ 3620 µM) | MIC (RSVF1): 62.5 µg/mL (≈ 453 µM) | MIC (RSVF1/pDG148): 62.5 µg/mL (≈ 453 µM)

C[C@H](N)C(=O)O [L-alanine]
spores converted to heat sensitive forms (spores): > 99%
